From patent US20100267561A1, “HERBICIDAL PYRIDAZINONE DERIVATIVES” (priority 2007, published 2010)

Experiments:
Assay in all cases: Test E pre-/postemergence plant response
Format in all cases: in vivo
Conditions in all cases: Postemergence, scale 0 to 100
[1] = system: Italian ryegrass (Lolium multiflorum)
Outline: (§1)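 In this greenhouse assay, sown seeds received preemergence treatment and young plants of 2 to 18 cm (1- to 4-leaf stage) received postemergence treatment, both with compound in a non-phytotoxic solvent and surfactant vehicle. Effects were rated visually 14 to 21 days later on a 0–100 control scale.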

[2] = system: annual bluegrass (Poa annua)
Outline: as §1

[3] = system: barnyardgrass (Echinochloa crus-galli)
Outline: as §1

[4] = system: bermudagrass (Cynodon dactylon)
Outline: as §1

[5] = system: black mustard (Brassica nigra)
Outline: as §1

[6] = system: broadleaf signalgrass (Brachiaria platyphylla)
Outline: as §1

[7] = system: common mallow (Malva sylvestris)
Outline: as §1

[8] = system: common purslane (Portulaca oleracea)
Outline: as §1

[9] = system: dallisgrass (Paspalum dilatatum)
Outline: as §1

[10] = system: green foxtail (Setaria viridis)
Outline: as §1

[11] = system: guineagrass (Panicum maximum)
Outline: as §1

[12] = system: itchgrass (Rottboellia cochinchinensis)
Outline: as §1

[13] = system: johnsongrass (Sorghum halepense)
Outline: as §1

[14] = system: pitted morningglory (Ipomoea lacunosa)
Outline: as §1

[15] = system: purple nutsedge (Cyperus rotundus)
Outline: as §1

[16] = system: southern (S.) sandbur (Cenchrus echinatus)
Outline: as §1

[17] = system: surinam grass (Brachiaria decumbens)
Outline: as §1

Cc1cc(-c2ccc(Cl)cc2)nn1-c1c(OC(=O)c2cccc(Cl)c2)cnn(C)c1=O [Compound 32]
Plant response rating, Ryegrass, Italian ([1]; 8 g ai/ha): 75
Plant response rating, Ryegrass, Italian ([1]; 16 g ai/ha): 95
Plant response rating, Ryegrass, Italian ([1]; 31 g ai/ha): 95
Plant response rating, Ryegrass, Italian ([1]; 62 g ai/ha): 98
Plant response rating, Bluegrass ([2]; 8 g ai/ha): 0
Plant response rating, Bluegrass ([2]; 16 g ai/ha): 0
Plant response rating, Bluegrass ([2]; 31 g ai/ha): 0
Plant response rating, Bluegrass ([2]; 62 g ai/ha): 0
Plant response rating, Barnyardgrass ([3]; 8 g ai/ha): 98
Plant response rating, Barnyardgrass ([3]; 16 g ai/ha): 98
Plant response rating, Barnyardgrass ([3]; 31 g ai/ha): 100
Plant response rating, Barnyardgrass ([3]; 62 g ai/ha): 100
Plant response rating, Bermudagrass ([4]; 8 g ai/ha): 5
Plant response rating, Bermudagrass ([4]; 16 g ai/ha): 20
Plant response rating, Bermudagrass ([4]; 31 g ai/ha): 40
Plant response rating, Bermudagrass ([4]; 62 g ai/ha): 75
Plant response rating, Mustard, Black ([5]; 8 g ai/ha): 0
Plant response rating, Mustard, Black ([5]; 16 g ai/ha): 0
Plant response rating, Mustard, Black ([5]; 31 g ai/ha): 0
Plant response rating, Mustard, Black ([5]; 62 g ai/ha): 0
Plant response rating, Signalgrass ([6]; 8 g ai/ha): 80
Plant response rating, Signalgrass ([6]; 16 g ai/ha): 80
Plant response rating, Signalgrass ([6]; 31 g ai/ha): 95
Plant response rating, Signalgrass ([6]; 62 g ai/ha): 100
Plant response rating, Mallow ([7]; 8 g ai/ha): 0
Plant response rating, Mallow ([7]; 16 g ai/ha): 0
Plant response rating, Mallow ([7]; 31 g ai/ha): 0
Plant response rating, Mallow ([7]; 62 g ai/ha): 0
Plant response rating, Purslane ([8]; 8 g ai/ha): 0
Plant response rating, Purslane ([8]; 16 g ai/ha): 0
Plant response rating, Purslane ([8]; 31 g ai/ha): 0
Plant response rating, Purslane ([8]; 62 g ai/ha): 0
Plant response rating, Dallisgrass ([9]; 8 g ai/ha): 0
Plant response rating, Dallisgrass ([9]; 16 g ai/ha): 20
Plant response rating, Dallisgrass ([9]; 31 g ai/ha): 30
Plant response rating, Dallisgrass ([9]; 62 g ai/ha): 40
Plant response rating, Foxtail, Green ([10]; 8 g ai/ha): 40
Plant response rating, Foxtail, Green ([10]; 16 g ai/ha): 60
Plant response rating, Foxtail, Green ([10]; 31 g ai/ha): 85
Plant response rating, Foxtail, Green ([10]; 62 g ai/ha): 90
Plant response rating, Guineagrass ([11]; 8 g ai/ha): 90
Plant response rating, Guineagrass ([11]; 16 g ai/ha): 98
Plant response rating, Guineagrass ([11]; 31 g ai/ha): 98
Plant response rating, Guineagrass ([11]; 62 g ai/ha): 100
Plant response rating, Itchgrass ([12]; 8 g ai/ha): 30
Plant response rating, Itchgrass ([12]; 16 g ai/ha): 75
Plant response rating, Itchgrass ([12]; 31 g ai/ha): 90
Plant response rating, Itchgrass ([12]; 62 g ai/ha): 90
Plant response rating, Johnsongrass ([13]; 8 g ai/ha): 50
Plant response rating, Johnsongrass ([13]; 16 g ai/ha): 80
Plant response rating, Johnsongrass ([13]; 31 g ai/ha): 98
Plant response rating, Johnsongrass ([13]; 62 g ai/ha): 100
Plant response rating, Morningglory ([14]; 8 g ai/ha): 0
Plant response rating, Morningglory ([14]; 16 g ai/ha): 35
Plant response rating, Morningglory ([14]; 31 g ai/ha): 35
Plant response rating, Morningglory ([14]; 62 g ai/ha): 50
Plant response rating, Nutsedge, Purple ([15]; 8 g ai/ha): 0
Plant response rating, Nutsedge, Purple ([15]; 16 g ai/ha): 0
Plant response rating, Nutsedge, Purple ([15]; 31 g ai/ha): 0
Plant response rating, Nutsedge, Purple ([15]; 62 g ai/ha): 0
Plant response rating, Sandbur, S. ([16]; 8 g ai/ha): 60
Plant response rating, Sandbur, S. ([16]; 16 g ai/ha): 75
Plant response rating, Sandbur, S. ([16]; 31 g ai/ha): 80
Plant response rating, Sandbur, S. ([16]; 62 g ai/ha): 80
Plant response rating, Surinam Grass ([17]; 8 g ai/ha): 80
Plant response rating, Surinam Grass ([17]; 31 g ai/ha): 100
Plant response rating, Surinam Grass ([17]; 62 g ai/ha): 100
